# ChEMBL document CHEMBL3797082, “A multicomponent pharmacophore fragment-decoration approach to identify selective LRRK2-targeting probes” (Medchemcomm, 2016)
# Active and inactive are the calls of the source. The rule behind the calls is not given here.
# Tests used:
# [1] = system: Leucine-rich repeat serine/threonine-protein kinase 2 (Homo sapiens), Q5S007 [G2019S]; assay: Inhibition of human recombinant GST-tagged LRRK2 G2019S mutant (970 residues) expressed in baculovirus expression system using LRRKtide as substrate at 100 uM incubated for 10 mins by scintillation counting method in presence of [gamma33P]ATP
# [2] = target: Leucine-rich repeat serine/threonine-protein kinase 2 (Homo sapiens) (UniProt Q5S007); assay: Inhibition of human recombinant N-terminal GST-tagged LRRK2 (968 residues) expressed in baculovirus infected sf9 cells using LRRKtide as substrate at 100 uM incubated for 10 mins by scintillation counting method in presence of [gamma33P]ATP
# [3] = target: Glycogen synthase kinase-3 beta (Homo sapiens) (UniProt P49841); assay: Inhibition of full length human recombinant N-terminal GST-tagged GSK3beta expressed in baculovirus infected sf9 cells using GSK3 substrate at 100 uM incubated for 10 mins by scintillation counting method relative to control
# [4] = target: T1, Leucine-rich repeat serine/threonine-protein kinase 2 (Homo sapiens, UniProt Q5S007, G2019S); assay: Competitive inhibition of human recombinant GST-tagged LRRK2 G2019S mutant (970 residues) expressed in baculovirus expression system assessed as enzyme-inhibitor complex by Michaelis-Menten kinetics in presence of varying level of ATP
# [5] = target: CDK9/cyclin T1 (Homo sapiens) (UniProt O60563+P50750); assay: Inhibition of full length human recombinant N-terminal GST-His6-tagged CDK9 (M1-F372 residues)/Cyclin T1 (M1-K726 residues) expressed in baculovirus infected sf9 cells using CDKtide as substrate at 100 uM incubated for 10 mins by scintillation counting method relative to control
# [6] = target: Serine/threonine-protein kinase pim-1 (Homo sapiens) (UniProt P11309); assay: Inhibition of full length human recombinant N-terminal GST-tagged PIM1 expressed in Escherichia coli using S6 Kinase/Rsk2 peptide2 as substrate at 100 uM incubated for 10 mins by scintillation counting method relative to control
# [7] = target: CDK6/cyclin D1 (Homo sapiens) (UniProt P24385+Q00534); assay: Inhibition of full length human recombinant N-terminal His-tagged CDK6/N-terminal GST-tagged Cyclin D1 expressed in baculovirus infected sf9 cells using RB-CTF as substrate at 100 uM incubated for 10 mins by scintillation counting method relative to control
# [8] = target: Receptor-type tyrosine-protein kinase FLT3 (Homo sapiens) (UniProt P36888); assay: Inhibition of human recombinant N-terminal GST-His6-tagged FLT3 (R571-S993 residues) expressed in baculovirus infected sf9 cells using KVEKIGEGTYGVVYK as substrate at 100 uM incubated for 10 mins by scintillation counting method relative to control
# [9] = system: Leucine-rich repeat serine/threonine-protein kinase 2 (Homo sapiens), Q5S007 [G2019S]; assay: Inhibition of human recombinant GST-tagged LRRK2 G2019S mutant (970 residues) expressed in baculovirus expression system using LRRKtide as substrate incubated for 10 mins by scintillation counting method in presence of [gamma33P]ATP
# [10] = target: Tyrosine-protein kinase ABL1 (Homo sapiens) (UniProt P00519); assay: Inhibition of human recombinant N-terminal His-tagged ABL (27 residues) expressed in baculovirus infected sf9 cells using KKGEAIYAAPFA-NH2 as substrate at 100 uM incubated for 10 mins by scintillation counting method relative to control
# [11] = target: Phosphatidylinositol 4-kinase beta (Homo sapiens) (UniProt Q9UBF8); assay: Inhibition of full length human recombinant N-terminal GST-His-tagged PI4KB expressed in sf9 cells using phosphatidyl inositol:phosphatidyl serine (1:3) substrate at 100 uM by ADP-Glo kinase assay relative to control
# [12] = target: Focal adhesion kinase 1 (Homo sapiens) (UniProt Q05397); assay: Inhibition of human recombinant FAK expressed in baculovirus infected sf9 cells using KVEKIGEGTYGVVYK as substrate at 100 uM incubated for 10 mins by scintillation counting method relative to control
# [13] = target: Cyclin-dependent kinase 4/cyclin D1 (Homo sapiens) (UniProt P11802+P24385); assay: Inhibition of full length human recombinant N-terminal GST-tagged CDK4/Cyclin D1 expressed in baculovirus infected sf9 cells using RB-CTF as substrate at 100 uM incubated for 10 mins by scintillation counting method relative to control
# [14] = target: CDK9/Cyclin K (Homo sapiens) (UniProt P50750+O75909); assay: Inhibition of full length human recombinant N-terminal GST-tagged CDK9/Cyclin K expressed in baculovirus infected sf9 cells using CDKtide as substrate at 100 uM incubated for 10 mins by scintillation counting method relative to control
# [15] = target: CDK2/Cyclin A2 (Homo sapiens) (UniProt P24941+P20248); assay: Inhibition of full length human recombinant N-terminal GST-tagged CDK2 (M1-L298 residues)/Cyclin A2 (M1-L432 residues) expressed in baculovirus infected sf9 cells using histone H1 as substrate at 100 uM incubated for 10 mins by scintillation counting method relative to control
# [16] = target: Tyrosine-protein kinase HCK (Homo sapiens) (UniProt P08631); assay: Inhibition of full length human recombinant N-terminal GST-His6-tagged HCK (M1 to P505 residues) expressed in baculovirus infected sf9 cells using KVEKIGEGTYGVVYK as substrate at 100 uM incubated for 10 mins by scintillation counting method relative to control
# [17] = target: Leucine-rich repeat serine/threonine-protein kinase 2 (Homo sapiens) (UniProt Q5S007); assay: Inhibition of human recombinant N-terminal GST-tagged LRRK2 (968 residues) expressed in baculovirus infected sf9 cells using LRRKtide as substrate incubated for 10 mins by scintillation counting method in presence of [gamma33P]ATP
# [18] = target: Dual specificity tyrosine-phosphorylation-regulated kinase 1A (Rattus norvegicus) (UniProt Q63470); assay: Inhibition of recombinant rat N-terminal GST-tagged DYRK1A (1 to 499 residues) expressed in Escherichia coli using KKISGRLSPIMTEQ-NH2 as substrate at 100 uM incubated for 10 mins by scintillation counting method relative to control
# [19] = target: Proto-oncogene tyrosine-protein kinase Src (Homo sapiens) (UniProt P12931); assay: Inhibition of full length human recombinant N-terminal His6-tagged SRC expressed in baculovirus infected sf21 cells using KVEKIGEGTYGVVYK as substrate at 100 uM incubated for 10 mins by scintillation counting method relative to control
# [20] = Selectivity ratio of ID50 for human recombinant N-terminal GST-tagged LRRK2 (968 residues) expressed in baculovirus infected sf9 cells to ID50 for human recombinant GST-tagged LRRK2 G2019S mutant (970 residues) expressed in baculovirus expression system
# [21] = target: Leucine-rich repeat serine/threonine-protein kinase 2 (Homo sapiens) (UniProt Q5S007); assay: Inhibition of human recombinant N-terminal GST-tagged LRRK2 (968 residues) expressed in baculovirus infected sf9 cells using LRRKtide as substrate at 50 uM incubated for 10 mins by scintillation counting method in presence of [gamma33P]ATP
# [22] = system: Leucine-rich repeat serine/threonine-protein kinase 2 (Homo sapiens), Q5S007 [G2019S]; assay: Inhibition of human recombinant GST-tagged LRRK2 G2019S mutant (970 residues) expressed in baculovirus expression system using LRRKtide as substrate at 50 uM incubated for 10 mins by scintillation counting method in presence of [gamma33P]ATP
# [23] = target: T1, Leucine-rich repeat serine/threonine-protein kinase 2; assay: Mixed type inhibition of human recombinant GST-tagged LRRK2 G2019S mutant (970 residues) expressed in baculovirus expression system assessed as enzyme-substrate-inhibitor complex by Michaelis-Menten kinetics in presence of varying level of ATP
# [24] = system: Leucine-rich repeat serine/threonine-protein kinase 2 (Homo sapiens), Q5S007 [G2019S]; assay: Ratio of enzyme-substrate-inhibitor complex Ki to enzyme-inhibitor complex Ki for human recombinant GST-tagged LRRK2 G2019S mutant (970 residues) expressed in baculovirus expression system
# [25] = target: T1, Leucine-rich repeat serine/threonine-protein kinase 2; assay: Mixed type inhibition of human recombinant GST-tagged LRRK2 G2019S mutant (970 residues) expressed in baculovirus expression system assessed as enzyme-inhibitor complex by Michaelis-Menten kinetics in presence of varying level of ATP
# Sequence of Proto-oncogene tyrosine-protein kinase Src (Homo sapiens) (P12931 2-536 limits assumed): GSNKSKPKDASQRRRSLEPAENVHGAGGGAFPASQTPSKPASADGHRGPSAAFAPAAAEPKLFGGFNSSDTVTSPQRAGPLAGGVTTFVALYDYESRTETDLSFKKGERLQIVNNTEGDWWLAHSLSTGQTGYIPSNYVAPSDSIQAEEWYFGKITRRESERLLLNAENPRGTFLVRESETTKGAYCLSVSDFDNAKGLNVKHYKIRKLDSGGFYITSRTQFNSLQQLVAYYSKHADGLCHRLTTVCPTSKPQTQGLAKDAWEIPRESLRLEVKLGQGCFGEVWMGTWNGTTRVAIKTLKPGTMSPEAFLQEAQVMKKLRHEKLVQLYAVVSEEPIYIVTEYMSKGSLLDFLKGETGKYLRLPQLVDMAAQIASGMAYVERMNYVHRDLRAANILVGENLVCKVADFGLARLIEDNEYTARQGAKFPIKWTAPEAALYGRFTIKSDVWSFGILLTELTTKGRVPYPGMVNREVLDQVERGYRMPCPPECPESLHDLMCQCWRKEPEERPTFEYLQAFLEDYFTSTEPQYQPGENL
# Sequence of Glycogen synthase kinase-3 beta (Homo sapiens) (P49841 whole entry, looked up): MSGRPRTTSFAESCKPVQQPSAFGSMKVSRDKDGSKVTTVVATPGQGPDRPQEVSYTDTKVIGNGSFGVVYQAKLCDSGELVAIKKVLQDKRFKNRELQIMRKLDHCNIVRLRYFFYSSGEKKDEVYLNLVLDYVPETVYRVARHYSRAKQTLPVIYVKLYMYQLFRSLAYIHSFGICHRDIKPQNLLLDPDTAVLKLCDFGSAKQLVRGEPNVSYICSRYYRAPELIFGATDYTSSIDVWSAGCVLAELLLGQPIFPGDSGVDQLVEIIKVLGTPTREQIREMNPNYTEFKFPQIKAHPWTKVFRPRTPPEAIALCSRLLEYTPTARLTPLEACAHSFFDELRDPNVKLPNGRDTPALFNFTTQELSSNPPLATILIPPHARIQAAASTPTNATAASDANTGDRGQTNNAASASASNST
# Sequence of Phosphatidylinositol 4-kinase beta (Homo sapiens) (Q9UBF8 2-816 limits assumed): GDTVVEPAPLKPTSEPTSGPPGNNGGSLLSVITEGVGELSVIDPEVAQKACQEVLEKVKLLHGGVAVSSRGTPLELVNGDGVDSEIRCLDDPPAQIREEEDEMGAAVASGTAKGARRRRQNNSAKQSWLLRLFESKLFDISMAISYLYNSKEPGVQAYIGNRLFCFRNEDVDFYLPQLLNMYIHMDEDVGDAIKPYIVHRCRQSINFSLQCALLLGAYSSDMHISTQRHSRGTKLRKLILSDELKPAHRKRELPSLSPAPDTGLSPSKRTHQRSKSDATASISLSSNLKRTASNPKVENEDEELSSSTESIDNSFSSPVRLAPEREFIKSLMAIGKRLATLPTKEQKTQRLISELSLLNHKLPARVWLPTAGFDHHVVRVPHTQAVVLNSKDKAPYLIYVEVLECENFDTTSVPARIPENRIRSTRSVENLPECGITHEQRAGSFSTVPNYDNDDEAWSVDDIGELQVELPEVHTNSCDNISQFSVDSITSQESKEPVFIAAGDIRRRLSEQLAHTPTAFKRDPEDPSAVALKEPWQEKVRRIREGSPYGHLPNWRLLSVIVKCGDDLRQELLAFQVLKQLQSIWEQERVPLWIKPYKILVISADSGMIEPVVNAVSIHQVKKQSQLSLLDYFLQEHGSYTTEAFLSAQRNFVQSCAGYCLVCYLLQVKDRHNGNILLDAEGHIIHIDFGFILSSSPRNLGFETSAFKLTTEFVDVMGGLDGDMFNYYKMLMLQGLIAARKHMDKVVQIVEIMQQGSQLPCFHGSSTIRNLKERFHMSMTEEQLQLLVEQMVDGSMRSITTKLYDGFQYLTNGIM
# Sequence of Focal adhesion kinase 1 (Homo sapiens) (Q05397 2-1052 limits assumed): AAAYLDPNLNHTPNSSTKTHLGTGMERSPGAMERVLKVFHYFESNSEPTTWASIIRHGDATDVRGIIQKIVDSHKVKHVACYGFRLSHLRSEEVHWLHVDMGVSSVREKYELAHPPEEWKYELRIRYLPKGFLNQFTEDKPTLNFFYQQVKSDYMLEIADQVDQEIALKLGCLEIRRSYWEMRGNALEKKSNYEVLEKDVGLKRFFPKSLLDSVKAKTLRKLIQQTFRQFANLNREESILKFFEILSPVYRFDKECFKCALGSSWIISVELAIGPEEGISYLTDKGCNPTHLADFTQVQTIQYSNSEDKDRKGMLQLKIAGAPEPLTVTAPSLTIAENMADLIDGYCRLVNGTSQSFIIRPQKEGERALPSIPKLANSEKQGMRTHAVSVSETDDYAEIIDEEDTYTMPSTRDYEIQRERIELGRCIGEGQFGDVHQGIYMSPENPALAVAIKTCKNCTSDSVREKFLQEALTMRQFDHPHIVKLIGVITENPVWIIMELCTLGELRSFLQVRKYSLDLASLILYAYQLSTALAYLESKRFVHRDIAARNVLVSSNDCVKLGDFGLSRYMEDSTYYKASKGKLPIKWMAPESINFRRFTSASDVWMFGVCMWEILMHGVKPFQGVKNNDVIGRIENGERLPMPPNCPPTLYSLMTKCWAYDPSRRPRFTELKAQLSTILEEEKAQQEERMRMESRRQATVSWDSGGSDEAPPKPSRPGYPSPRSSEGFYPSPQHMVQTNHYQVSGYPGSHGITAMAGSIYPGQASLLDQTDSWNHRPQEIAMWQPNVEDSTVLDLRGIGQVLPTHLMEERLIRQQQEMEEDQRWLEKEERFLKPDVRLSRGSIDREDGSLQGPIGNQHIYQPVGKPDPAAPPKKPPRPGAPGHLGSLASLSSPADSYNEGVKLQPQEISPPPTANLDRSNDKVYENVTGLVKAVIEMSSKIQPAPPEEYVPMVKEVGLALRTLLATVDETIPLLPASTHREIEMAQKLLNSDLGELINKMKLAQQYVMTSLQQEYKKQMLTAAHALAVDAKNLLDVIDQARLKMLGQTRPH
# Sequence of Receptor-type tyrosine-protein kinase FLT3 (Homo sapiens) (P36888 whole entry, the tested form may be a part): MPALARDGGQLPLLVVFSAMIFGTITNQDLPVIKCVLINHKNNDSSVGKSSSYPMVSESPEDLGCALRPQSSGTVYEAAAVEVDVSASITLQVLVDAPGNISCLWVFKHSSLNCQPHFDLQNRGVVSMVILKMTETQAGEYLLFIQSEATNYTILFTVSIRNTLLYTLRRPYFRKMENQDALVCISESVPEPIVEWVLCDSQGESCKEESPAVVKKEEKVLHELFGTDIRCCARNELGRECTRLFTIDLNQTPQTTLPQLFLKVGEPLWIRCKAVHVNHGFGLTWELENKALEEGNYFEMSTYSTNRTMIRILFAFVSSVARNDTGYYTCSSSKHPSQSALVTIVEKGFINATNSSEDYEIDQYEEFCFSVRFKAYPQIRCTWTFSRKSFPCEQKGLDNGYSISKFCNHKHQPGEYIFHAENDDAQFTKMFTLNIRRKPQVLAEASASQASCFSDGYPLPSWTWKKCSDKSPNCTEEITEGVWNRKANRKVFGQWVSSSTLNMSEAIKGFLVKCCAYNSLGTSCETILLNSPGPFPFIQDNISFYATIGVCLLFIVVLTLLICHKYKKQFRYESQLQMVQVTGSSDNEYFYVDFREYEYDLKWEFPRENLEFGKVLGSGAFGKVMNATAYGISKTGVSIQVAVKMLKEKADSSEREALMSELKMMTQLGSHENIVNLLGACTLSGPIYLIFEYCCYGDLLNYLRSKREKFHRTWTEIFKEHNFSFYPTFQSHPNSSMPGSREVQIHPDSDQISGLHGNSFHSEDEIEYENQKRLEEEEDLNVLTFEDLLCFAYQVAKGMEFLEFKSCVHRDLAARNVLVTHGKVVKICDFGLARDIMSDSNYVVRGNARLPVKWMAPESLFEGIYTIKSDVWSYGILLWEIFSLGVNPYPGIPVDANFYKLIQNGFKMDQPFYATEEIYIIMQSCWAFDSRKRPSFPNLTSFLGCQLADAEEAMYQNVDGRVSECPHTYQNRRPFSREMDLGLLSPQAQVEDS
# Sequence of Tyrosine-protein kinase HCK (Homo sapiens) (P08631 2-526 limits assumed): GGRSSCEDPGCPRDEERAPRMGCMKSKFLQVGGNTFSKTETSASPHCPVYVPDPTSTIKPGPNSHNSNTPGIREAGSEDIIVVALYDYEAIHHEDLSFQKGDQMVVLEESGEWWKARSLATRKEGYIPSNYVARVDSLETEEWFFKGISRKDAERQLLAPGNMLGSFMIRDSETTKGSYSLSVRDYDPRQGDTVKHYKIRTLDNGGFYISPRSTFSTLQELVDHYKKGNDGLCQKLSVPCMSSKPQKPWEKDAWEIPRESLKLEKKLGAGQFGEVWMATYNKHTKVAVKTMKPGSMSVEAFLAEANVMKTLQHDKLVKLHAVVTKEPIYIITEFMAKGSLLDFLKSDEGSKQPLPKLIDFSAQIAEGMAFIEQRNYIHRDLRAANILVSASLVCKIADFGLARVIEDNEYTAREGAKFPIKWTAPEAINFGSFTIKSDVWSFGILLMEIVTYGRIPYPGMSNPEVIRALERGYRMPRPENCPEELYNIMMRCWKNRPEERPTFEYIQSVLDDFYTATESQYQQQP
# Sequence of Serine/threonine-protein kinase pim-1 (Homo sapiens) (P11309 whole entry, looked up): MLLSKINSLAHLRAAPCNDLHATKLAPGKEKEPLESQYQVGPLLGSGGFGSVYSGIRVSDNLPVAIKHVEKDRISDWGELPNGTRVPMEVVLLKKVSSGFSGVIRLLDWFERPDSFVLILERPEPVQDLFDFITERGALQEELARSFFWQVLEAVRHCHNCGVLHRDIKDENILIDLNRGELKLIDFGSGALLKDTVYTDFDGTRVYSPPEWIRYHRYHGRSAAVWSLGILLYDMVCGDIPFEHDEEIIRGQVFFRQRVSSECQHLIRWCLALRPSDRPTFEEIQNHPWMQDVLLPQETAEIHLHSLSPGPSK
Structure (SMILES),inhibition [1],inhibition [2],inhibition [3],inhibition [5],inhibition [6],inhibition [7],inhibition [8],ID50 [9],inhibition [10],inhibition [11],inhibition [12],inhibition [13],inhibition [14],inhibition [15],inhibition [16],ID50 [17],inhibition [18],inhibition [19],Selectivity ratio [20],inhibition [21],also measured
COc1ccc(/C=N/Nc2ncccc2Cl)cc1OC,Active,Active,–,–,–,–,–,–,–,–,–,–,–,–,–,–,–,–,–,–,–
COc1ccc(/C=N/Nc2nc(C)cc(C)c2C#N)cc1,Active,Active,–,–,–,–,–,–,–,–,–,–,–,–,–,–,–,–,–,–,–
COc1ccc(-c2nnc3c(NCCN4CCOCC4)cccn23)cc1OC,Active,Active,14%,24%,29%,18%,0%,9.1 µM,19%,3%,8%,10%,38%,22%,0%,32 µM,26%,40%,3.5,–,Ki [4]: 5.61 µM
C/C(=N\Nc1ccc2ccccc2n1)c1ccccc1O,–,–,1%,1%,3%,1%,3%,4.8 µM,6%,0%,1%,7%,2%,3%,0%,32.6 µM,9%,5%,7.5,Active,inhibition [22]: Active; Ki [23]: 18.4 µM; Ratio [24]: 5; Ki [25]: 3.45 µM
COc1ccc(/C=N/Nc2nc3c(c(-c4ccccc4)c2C#N)CCCC3)cc1,Active,Active,–,–,–,–,–,–,–,–,–,–,–,–,–,–,–,–,–,–,–
COc1ccc(/C=N/Nc2cc(C)c3ccccc3n2)cc1,–,–,0%,0%,20%,42%,50%,0.9 µM,43%,32%,11%,9%,53%,9%,0%,3 µM,0%,31%,4,Active,inhibition [22]: Active; Ki [23]: 1.8 µM; Ki [25]: 0.74 µM
Cc1cc(N/N=C/c2ccc(OC(=O)c3ccc(N4CCN(C)CC4)cc3)cc2)nc2ccccc12,inactive,inactive,–,–,–,–,–,–,–,–,–,–,–,–,–,–,–,–,–,–,–
COc1ccc(/C=N/Nc2ccccn2)cc1,Active,Active,–,–,–,–,–,–,–,–,–,–,–,–,–,–,–,–,–,–,–
Cc1cc(N/N=C/c2ccc(O)cc2)nc2ccccc12,–,–,0%,0%,43%,40%,62%,1.3 µM,24%,31%,13%,16%,24%,12%,0%,2.7 µM,22%,21%,2.4,Active,inhibition [22]: Active; Ki [23]: 2.59 µM; Ratio [24]: 5; Ki [25]: 0.55 µM
